Measurements reported in ChEMBL document CHEMBL1201862, “PubChem BioAssay data set” (2004).
Active and inactive are the calls of the source.

How the values were obtained:
[1] = biological target: C-C chemokine receptor type 6 (Homo sapiens, UniProt P51684); experiment: CCR6 receptor antagonists, dose response, cell-based, luminescent beta-arrestin readout (AID 504728); type: functional
Beta-galactosidase = Beta-galactosidase (Escherichia coli, UniProt Q8VNN2); experiment: beta-galactosidase enzyme inhibitors and activators, dose response, artefact control for CCR6 antagonist project, biochemical, E. coli enzyme, set 3 (AID 504712); type: functional
Chain of Beta-galactosidase (Q8VNN2 whole entry): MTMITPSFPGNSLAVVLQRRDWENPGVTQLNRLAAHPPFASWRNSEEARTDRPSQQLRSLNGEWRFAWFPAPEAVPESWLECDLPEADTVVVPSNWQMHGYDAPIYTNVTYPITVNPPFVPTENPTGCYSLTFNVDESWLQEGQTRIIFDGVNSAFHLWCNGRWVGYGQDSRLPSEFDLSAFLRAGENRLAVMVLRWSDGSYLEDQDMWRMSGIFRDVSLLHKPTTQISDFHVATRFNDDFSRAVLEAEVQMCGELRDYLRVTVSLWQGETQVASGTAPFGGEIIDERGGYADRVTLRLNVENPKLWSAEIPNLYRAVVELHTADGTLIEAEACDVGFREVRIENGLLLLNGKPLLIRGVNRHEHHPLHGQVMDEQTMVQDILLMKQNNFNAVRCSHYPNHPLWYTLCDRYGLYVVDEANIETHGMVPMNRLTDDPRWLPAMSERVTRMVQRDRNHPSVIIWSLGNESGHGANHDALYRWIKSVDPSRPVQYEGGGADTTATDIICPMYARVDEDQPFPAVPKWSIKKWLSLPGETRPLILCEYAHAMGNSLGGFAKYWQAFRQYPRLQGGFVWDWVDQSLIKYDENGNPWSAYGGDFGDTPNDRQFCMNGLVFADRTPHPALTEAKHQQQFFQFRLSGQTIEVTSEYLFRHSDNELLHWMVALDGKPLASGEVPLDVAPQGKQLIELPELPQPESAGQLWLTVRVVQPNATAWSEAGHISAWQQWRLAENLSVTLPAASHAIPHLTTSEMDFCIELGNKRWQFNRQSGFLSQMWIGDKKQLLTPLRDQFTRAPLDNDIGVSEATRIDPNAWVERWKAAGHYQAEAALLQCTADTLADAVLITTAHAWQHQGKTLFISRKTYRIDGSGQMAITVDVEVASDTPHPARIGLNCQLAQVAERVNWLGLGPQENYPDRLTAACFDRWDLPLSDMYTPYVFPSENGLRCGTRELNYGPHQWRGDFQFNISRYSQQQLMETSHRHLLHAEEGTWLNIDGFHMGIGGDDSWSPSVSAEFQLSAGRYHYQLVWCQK

[2] = biological target: T1, Apoptotic protease-activating factor 1 (Homo sapiens, UniProt O14727); type: functional
T1 sequence (O14727 whole entry): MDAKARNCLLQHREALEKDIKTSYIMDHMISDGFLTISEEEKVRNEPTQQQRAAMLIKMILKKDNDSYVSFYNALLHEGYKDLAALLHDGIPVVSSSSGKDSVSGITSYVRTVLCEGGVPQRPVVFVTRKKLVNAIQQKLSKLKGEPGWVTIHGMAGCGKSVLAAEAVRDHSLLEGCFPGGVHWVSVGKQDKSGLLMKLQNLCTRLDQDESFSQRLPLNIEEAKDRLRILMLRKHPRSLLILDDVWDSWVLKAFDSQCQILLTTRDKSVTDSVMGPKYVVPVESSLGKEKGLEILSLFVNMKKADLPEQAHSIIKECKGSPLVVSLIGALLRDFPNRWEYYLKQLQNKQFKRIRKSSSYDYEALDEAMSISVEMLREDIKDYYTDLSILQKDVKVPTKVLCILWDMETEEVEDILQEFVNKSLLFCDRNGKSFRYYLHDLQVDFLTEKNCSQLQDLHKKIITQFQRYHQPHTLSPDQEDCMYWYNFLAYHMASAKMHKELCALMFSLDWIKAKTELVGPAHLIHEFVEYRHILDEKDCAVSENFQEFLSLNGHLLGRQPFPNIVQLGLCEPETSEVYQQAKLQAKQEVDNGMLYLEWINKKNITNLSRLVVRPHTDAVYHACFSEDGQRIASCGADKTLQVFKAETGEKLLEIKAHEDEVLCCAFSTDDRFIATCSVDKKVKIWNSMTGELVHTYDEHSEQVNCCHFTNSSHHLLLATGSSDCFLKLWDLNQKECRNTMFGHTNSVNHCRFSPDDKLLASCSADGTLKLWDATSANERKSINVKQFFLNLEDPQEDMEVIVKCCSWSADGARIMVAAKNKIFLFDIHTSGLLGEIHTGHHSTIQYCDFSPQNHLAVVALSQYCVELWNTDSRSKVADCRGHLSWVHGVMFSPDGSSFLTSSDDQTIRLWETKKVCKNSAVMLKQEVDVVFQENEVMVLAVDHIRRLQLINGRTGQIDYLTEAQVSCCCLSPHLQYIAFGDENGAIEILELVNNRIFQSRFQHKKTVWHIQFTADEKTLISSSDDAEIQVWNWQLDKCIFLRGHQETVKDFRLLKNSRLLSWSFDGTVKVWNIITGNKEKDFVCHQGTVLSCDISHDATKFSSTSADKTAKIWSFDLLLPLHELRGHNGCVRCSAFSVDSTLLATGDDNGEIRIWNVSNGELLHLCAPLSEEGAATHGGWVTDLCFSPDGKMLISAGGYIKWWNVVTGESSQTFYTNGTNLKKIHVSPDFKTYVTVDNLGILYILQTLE

[3] = biological target: 1-phosphatidylinositol 4,5-bisphosphate phosphodiesterase gamma-1 (Homo sapiens, UniProt P19174); experiment: Counterscreen for inhibitors of phospholipase C isozymes (PLC-B3): Fluorescence-based biochemical high throughput dose response assay to identify inhibitors of phospholipase C isozymes (PLC-gamma1).
Chain of 1-phosphatidylinositol 4,5-bisphosphate phosphodiesterase gamma-1 (P19174 whole entry): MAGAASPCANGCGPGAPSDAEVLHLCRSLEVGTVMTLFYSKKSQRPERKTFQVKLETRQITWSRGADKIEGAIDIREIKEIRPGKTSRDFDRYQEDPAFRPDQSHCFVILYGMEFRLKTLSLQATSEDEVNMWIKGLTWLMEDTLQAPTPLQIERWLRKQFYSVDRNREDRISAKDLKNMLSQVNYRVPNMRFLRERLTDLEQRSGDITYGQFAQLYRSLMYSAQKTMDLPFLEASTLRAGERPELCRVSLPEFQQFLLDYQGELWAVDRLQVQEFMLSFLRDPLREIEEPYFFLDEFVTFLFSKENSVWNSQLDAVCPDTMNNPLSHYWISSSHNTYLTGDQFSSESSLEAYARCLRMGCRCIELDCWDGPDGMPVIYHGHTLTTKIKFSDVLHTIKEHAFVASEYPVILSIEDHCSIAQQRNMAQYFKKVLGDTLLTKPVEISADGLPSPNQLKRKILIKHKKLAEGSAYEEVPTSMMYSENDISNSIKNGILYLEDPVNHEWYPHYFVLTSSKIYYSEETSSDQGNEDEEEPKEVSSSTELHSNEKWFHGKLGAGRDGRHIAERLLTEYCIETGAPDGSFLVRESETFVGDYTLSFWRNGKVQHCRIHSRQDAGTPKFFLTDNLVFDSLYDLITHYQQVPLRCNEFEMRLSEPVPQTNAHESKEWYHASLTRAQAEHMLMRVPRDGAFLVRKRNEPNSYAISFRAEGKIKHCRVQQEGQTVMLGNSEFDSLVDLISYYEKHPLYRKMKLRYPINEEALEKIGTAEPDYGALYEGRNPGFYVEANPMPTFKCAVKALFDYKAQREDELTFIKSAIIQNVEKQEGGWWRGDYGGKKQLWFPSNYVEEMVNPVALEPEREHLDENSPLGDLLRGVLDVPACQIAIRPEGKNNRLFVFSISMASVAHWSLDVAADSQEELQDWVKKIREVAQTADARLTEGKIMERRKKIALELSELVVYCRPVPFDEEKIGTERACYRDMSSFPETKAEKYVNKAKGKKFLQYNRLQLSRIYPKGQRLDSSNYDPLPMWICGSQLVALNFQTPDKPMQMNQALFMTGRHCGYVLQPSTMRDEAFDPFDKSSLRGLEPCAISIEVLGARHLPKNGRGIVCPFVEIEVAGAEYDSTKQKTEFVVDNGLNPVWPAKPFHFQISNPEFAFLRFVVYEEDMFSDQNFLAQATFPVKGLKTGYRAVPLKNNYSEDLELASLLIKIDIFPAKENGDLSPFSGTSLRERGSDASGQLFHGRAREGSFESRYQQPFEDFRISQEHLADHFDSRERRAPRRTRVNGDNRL

[4] = biological target: 1-phosphatidylinositol 4,5-bisphosphate phosphodiesterase beta-3 (Homo sapiens, UniProt Q01970); experiment: Fluorescence-based biochemical high throughput dose response assay to identify inhibitors of phospholipase C isozymes (PLC-B3).
Chain of 1-phosphatidylinositol 4,5-bisphosphate phosphodiesterase beta-3 (Q01970 whole entry): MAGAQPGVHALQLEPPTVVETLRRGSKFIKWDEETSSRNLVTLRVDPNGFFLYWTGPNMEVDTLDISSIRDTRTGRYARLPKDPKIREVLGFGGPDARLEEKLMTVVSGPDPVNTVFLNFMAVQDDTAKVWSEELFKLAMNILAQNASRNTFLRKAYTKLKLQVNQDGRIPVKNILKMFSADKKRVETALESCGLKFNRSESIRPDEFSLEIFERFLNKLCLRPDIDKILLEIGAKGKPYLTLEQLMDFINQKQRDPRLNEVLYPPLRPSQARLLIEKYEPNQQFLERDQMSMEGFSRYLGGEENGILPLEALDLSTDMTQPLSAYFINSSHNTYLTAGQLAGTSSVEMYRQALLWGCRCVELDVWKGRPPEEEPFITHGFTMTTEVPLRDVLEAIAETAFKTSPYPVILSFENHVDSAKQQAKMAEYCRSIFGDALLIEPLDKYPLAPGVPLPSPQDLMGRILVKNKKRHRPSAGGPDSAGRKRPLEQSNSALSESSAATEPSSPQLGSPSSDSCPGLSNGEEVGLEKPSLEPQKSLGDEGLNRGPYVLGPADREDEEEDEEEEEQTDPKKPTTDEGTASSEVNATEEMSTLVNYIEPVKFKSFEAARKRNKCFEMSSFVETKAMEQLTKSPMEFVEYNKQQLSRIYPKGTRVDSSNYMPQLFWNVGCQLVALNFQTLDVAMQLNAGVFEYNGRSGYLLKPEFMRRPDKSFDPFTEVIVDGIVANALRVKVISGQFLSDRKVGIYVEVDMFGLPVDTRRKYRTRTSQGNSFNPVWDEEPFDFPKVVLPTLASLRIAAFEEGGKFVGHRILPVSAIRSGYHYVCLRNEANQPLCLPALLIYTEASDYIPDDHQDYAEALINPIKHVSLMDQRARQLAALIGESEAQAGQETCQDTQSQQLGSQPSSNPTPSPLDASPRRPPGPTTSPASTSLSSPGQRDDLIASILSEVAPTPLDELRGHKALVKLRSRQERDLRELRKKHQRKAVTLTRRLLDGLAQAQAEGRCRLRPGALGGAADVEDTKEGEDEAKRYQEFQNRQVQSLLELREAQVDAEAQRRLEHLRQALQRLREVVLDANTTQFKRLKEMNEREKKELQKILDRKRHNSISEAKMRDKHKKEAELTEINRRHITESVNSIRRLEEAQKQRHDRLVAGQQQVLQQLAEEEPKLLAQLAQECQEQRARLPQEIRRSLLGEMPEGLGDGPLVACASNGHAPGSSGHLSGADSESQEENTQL

[5] = THP-1 cell cytotoxicity, dose response, cytotoxicity control for Vif-APOBEC3G degradation inhibitor project, THP-1 cells (AID 1117359); type: functional; conditions: Human immunodeficiency virus 1, THP-1
[6] = biological target: Eukaryotic translation initiation factor 4H (Homo sapiens, UniProt Q15056); experiment: eIF4H inhibition in translation initiation, SAR follow-up (AID 435011); type: functional
[7] = biological target: Polyadenylate-binding protein 1 (Homo sapiens, UniProt P11940); experiment: PABP inhibition in translation initiation, SAR follow-up (AID 435018); type: functional
[8] = biological target: Envelope glycoprotein gp160 (Human immunodeficiency virus 1, UniProt Q6QLK5); experiment: inhibitors of HIV fusion peptide binding, primary screen, biochemical, uHTS, fluorescence dequenching (AID 1986)
Chain of Envelope glycoprotein gp160 (Q6QLK5 whole entry, the tested form may be a part): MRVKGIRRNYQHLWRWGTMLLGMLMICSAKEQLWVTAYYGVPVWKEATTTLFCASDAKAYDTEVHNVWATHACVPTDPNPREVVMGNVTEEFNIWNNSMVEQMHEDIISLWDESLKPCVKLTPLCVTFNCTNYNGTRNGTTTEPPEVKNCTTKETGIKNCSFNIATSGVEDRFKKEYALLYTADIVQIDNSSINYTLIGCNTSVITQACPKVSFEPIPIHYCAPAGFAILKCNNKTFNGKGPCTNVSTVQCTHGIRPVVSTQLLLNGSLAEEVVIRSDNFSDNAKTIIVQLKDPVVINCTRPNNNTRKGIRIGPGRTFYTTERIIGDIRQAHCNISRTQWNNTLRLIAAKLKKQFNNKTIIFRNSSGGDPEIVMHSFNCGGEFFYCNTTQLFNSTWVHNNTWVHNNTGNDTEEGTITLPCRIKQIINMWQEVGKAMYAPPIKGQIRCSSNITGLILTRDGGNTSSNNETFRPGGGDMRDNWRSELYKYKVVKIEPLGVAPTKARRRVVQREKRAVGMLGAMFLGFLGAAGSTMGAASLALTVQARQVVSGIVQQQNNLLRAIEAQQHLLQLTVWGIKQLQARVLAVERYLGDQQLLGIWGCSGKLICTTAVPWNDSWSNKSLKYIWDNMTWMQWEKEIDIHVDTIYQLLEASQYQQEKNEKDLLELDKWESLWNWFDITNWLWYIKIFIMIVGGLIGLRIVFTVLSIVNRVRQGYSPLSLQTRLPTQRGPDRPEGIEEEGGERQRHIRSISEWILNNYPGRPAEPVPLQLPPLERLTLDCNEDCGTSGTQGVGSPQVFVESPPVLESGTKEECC

[9] = M. tuberculosis H37Rv growth inhibitors, H37Rv strain (AID 1626); type: functional
[10] = Luminescence Cell-Based Dose Retest to Confirm Inhibitors of Cancer Stem Cells. [Related pubchem assays (depositor defined):AID2717, AID2721]; type: functional; conditions: Homo sapiens
INS1 = experiment: beta cell apoptosis inhibitors, cytokine rescue, dose response, luminescence, retest (AID 449756); type: functional, cell-based; conditions: Rattus norvegicus;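 note: cell death triggered by IL-1 beta plus TNF-alpha plus IFN-gamma mixture; protective hits raise ATP signal compared with cytokine alone wells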
[11] = biological target: Cystic fibrosis transmembrane conductance regulator/Golgi-associated PDZ and coiled-coil motif-containing protein (Homo sapiens, UniProt P13569+Q9HD26); experiment: CAL PDZ peptide-binding inhibitors, dose response, biochemical, fluorescence polarization, Cerulean-tagged CAL PDZ, cherry-picks (AID 504773)
HeLa = experiment: HeLa cell cytotoxicity, dose response, cytotoxicity control, 24 h, cherry-picked samples (AID 504726); type: functional, cell-based; conditions: Homo sapiens;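 note: potency for cytotoxicity as loss of luminescence signal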
[12] = biological target: Intestinal-type alkaline phosphatase (Homo sapiens, UniProt P09923); experiment: Dose Response confirmation of uHTS hits from a small molecule inhibitors of human intestinal alkaline phosphatase via a luminescent assay. [Related pubchem assays (depositor defined):AID2544, AID2574]; type: functional
ORF 73 = ORF 73 (Human herpesvirus 8, UniProt O40947); experiment: inhibitors of C-LANA binding to LBS DNA, dose response, biochemical, fluorescence polarization, cherry-picked samples (AID 504725); design: species or system Human gammaherpesvirus 8;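 note: fluorescence polarization of a labeled DNA duplex reporting LANA DNA binding; potency is for inhibitors that block LANA binding to the DNA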
Insulin-degrading enzyme [13] = biological target: T2, Insulin-degrading enzyme (Homo sapiens, UniProt P14735); experiment: activators of recombinant IDE enzyme, dose response, counter-screen for IDE activator project, biochemical, fluorescence polarization (AID 588681)
T2 sequence (P14735 whole entry): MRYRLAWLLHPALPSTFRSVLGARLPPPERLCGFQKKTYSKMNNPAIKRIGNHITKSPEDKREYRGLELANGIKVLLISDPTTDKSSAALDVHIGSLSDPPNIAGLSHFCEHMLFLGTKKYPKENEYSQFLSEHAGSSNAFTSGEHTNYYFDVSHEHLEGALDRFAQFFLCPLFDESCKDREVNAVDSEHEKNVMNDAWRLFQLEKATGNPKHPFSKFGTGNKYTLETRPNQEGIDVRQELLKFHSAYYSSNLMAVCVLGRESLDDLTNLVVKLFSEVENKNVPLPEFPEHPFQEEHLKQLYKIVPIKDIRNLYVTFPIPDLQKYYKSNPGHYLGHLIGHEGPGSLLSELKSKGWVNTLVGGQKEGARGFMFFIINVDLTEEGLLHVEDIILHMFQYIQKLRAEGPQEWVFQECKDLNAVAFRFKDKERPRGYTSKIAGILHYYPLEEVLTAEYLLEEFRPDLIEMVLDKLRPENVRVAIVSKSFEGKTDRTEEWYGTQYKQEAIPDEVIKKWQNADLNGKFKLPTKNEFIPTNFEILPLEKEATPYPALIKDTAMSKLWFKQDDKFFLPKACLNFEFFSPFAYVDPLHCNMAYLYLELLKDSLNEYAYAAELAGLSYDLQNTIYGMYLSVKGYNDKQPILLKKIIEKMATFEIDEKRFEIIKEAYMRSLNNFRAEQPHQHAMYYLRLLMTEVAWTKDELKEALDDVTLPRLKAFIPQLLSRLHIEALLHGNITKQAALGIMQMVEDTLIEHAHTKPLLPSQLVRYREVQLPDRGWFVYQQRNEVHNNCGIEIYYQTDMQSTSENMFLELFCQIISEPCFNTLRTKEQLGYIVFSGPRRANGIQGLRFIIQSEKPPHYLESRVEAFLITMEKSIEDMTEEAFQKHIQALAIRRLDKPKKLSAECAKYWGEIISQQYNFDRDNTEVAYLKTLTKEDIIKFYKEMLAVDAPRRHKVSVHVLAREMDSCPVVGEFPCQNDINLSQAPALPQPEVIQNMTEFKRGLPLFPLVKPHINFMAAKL

Insulin-degrading enzyme [14] = biological target: T2, Insulin-degrading enzyme; experiment: activators of endogenous IDE in HEK cells, dose response, cell-based, fluorescence polarization (AID 588439); type: functional
HEK293 [15] = experiment: HEK cell cytotoxicity by LDH release, dose response, cytotoxicity control for IDE activator project, fluorescence, HEK cells (AID 588440); type: functional, cell-based; conditions: Homo sapiens;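 note: cytotoxicity by LDH release measuring loss of membrane integrity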
HEK293 [16] = experiment: optical interference in Abeta FP readout, dose response, artefact control for IDE activator project, biochemical, fluorescence polarization (AID 588442); type: functional, cell-based; conditions: Homo sapiens
Paired box protein Pax-8 = Paired box protein Pax-8 (Homo sapiens, UniProt Q06710); experiment: inhibitors of PAX8-driven TPO luciferase reporter, dose response, RMG-I cells, cherry-pick (AID 687027); type: functional, cell-based;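 note: luciferase reporter driven by Pax8 target thyroperoxidase promoter measured by SteadyGlo luminescence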
[17] = biological target: Glutathione-S-transferase (Schistosoma japonicum, UniProt Q26513); experiment: biotin-GST/anti-GST TR-FRET signal inhibitors, dose response, artefact control for Vif-APOBEC3G degradation inhibitor project, biochemical (AID 1117362); type: functional
[18] = biological target: T3, Tyrosine-protein phosphatase non-receptor type 7 (Homo sapiens, UniProt P35236); type: functional
T3 sequence (P35236 whole entry): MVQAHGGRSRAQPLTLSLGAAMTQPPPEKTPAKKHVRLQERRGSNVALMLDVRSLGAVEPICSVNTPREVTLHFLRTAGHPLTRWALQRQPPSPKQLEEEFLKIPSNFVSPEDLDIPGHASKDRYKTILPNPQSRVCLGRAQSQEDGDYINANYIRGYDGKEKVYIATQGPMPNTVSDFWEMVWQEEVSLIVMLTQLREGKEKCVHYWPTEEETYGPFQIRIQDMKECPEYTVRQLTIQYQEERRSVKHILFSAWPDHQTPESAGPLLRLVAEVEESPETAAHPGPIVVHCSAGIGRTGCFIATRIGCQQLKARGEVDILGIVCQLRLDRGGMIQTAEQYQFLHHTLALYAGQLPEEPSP

[19] = biological target: Glyceraldehyde-3-phosphate dehydrogenase (Homo sapiens, UniProt P04406)
Chain of Glyceraldehyde-3-phosphate dehydrogenase (P04406 whole entry): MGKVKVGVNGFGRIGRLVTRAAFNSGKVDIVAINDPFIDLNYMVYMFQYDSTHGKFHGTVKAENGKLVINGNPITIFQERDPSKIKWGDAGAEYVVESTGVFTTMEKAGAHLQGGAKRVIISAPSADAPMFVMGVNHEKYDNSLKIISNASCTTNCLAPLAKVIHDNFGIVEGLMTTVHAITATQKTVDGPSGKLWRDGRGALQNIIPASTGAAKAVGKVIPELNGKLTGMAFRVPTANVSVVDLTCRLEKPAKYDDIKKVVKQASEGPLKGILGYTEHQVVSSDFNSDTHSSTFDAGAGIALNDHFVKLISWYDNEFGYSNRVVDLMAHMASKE

[20] = biological target: T4, Dual specificity protein phosphatase 6 (Rattus norvegicus, UniProt Q64346)
T4 sequence (Q64346 whole entry): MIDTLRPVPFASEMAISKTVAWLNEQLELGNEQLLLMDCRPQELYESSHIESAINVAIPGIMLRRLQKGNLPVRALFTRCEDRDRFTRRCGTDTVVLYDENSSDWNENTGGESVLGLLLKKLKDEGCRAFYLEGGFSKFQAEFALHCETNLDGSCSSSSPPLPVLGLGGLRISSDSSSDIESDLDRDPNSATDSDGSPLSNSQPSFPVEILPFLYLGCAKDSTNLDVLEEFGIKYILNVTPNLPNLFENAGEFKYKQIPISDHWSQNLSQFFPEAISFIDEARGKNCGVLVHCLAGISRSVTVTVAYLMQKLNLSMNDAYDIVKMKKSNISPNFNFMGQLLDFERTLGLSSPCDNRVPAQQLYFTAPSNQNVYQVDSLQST

[21] = biological target: T5, Dual specificity protein phosphatase 3 (Homo sapiens, UniProt P51452); experiment: SAR VHR1 Fluorescent Assay for In Vitro dose response studies. [Related pubchem assays (depositor defined):AID1654, AID1661, AID1878, AID1992, AID2004, AID2070, AID2085]; type: functional
T5 sequence (P51452 whole entry): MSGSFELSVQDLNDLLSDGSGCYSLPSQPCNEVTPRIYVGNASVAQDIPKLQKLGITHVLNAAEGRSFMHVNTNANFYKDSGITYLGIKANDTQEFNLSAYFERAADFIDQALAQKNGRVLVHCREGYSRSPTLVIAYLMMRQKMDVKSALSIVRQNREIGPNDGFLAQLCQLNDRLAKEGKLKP

[22] = biological target: T5, Dual specificity protein phosphatase 3; experiment: MOA VHR1 Fluorescent secondary assay for identification of redox-state modulating compounds. [Related pubchem assays (depositor defined):AID1654, AID1661, AID1878, AID1957]
[23] = biological target: T3, Tyrosine-protein phosphatase non-receptor type 7; experiment: redox-dependent HePTP inhibition, mechanism study, biochemical, fluorescence (AID 2068); type: functional
[24] = biological target: T4, Dual specificity protein phosphatase 6; type: functional

FC(F)(F)C1=Nc2cccc3cccc(c23)N1
IC50 [1]: 23.8 µM (inactive) | IC50 (Beta-galactosidase): > 66.6 µM (inactive) | IC50 [2]: 12.1 µM (active) | IC50 [3]: 56.6 µM (inactive) | IC50 [4]: 102 µM (inactive) | CC50 [5]: 11.5 µM (active)

COc1cc(C=NNC(=O)c2ccccc2O)ccc1OCC(=O)Nc1ccccc1
IC50 [6]: 2.41 µM (active) | IC50 [7]: 52.6 µM (active)

O=S(=O)(Nc1nc2ccccc2nc1Nc1ccc(N2CCOCC2)cc1)c1cc(Cl)ccc1Cl
IC50 [8]: > 99 µM (inactive) | IC50 [9]: > 100 µM (active) | AC50 [10]: 4.38 µM (active) | AC50 (INS1): 5.91 µM (active)

COC(=O)c1ccccc1-c1c2ccc(=N)cc-2oc2cc(N)ccc12
AC50 [11]: 3.6 µM (active) | AC50 (HeLa): 34 µM (active) | IC50 [12]: > 100 µM (inactive) | AC50 (ORF 73): < 0.015 µM (active) | EC50 (Insulin-degrading enzyme [13]): > 54.7 µM (inactive) | EC50 (Insulin-degrading enzyme [14]): > 54.7 µM (inactive) | IC50 (HEK293 [15]): > 89.2 µM (inactive) | EC50 (HEK293 [16]): 0.045 µM (active) | AC50 (Paired box protein Pax-8): 1.41 µM (active) | CC50 [5]: 5.49 µM (active) | IC50 [17]: 9.91 µM (active)

Cc1cc(C)c2nc3s/c(=C\c4ccc(-c5ccccc5C(=O)O)o4)c(=O)n3c2c1
IC50 [18]: 2.4 µM (active) | IC50 [19]: 87.1 µM (active) | IC50 [20]: 13.8 µM (active) | IC50 [21]: 5.82 µM (active) | IC50 [22]: 0.68 µM (active) | IC50 [23]: 0.805 µM (active) | IC50 [24]: 15.6 µM (active)
